In ChEMBL document CHEMBL4507276 (2021):

Legend:
[1] = molecular target: Mitotic checkpoint serine/threonine-protein kinase BUB1 (Homo sapiens) (UniProt O43683); details: Compound concentration 1000.0 nM
[2] = molecular target: Proto-oncogene tyrosine-protein kinase ROS (Homo sapiens) (UniProt P08922); details: Compound concentration 1000.0 nM
[3] = molecular target: T1, Mitogen-activated protein kinase 12 (Homo sapiens) (UniProt P53778); details: Compound concentration 1000.0 nM
T1 sequence (whole entry): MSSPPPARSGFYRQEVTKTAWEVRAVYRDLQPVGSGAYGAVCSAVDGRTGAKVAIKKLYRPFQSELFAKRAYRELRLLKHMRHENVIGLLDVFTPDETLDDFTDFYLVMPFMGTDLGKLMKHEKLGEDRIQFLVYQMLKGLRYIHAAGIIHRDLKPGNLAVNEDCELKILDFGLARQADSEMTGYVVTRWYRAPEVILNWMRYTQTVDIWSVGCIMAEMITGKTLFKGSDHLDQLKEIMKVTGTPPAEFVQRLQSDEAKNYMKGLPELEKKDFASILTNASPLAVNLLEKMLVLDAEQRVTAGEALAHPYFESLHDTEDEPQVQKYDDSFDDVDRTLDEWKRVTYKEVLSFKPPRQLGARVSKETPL

[4] = molecular target: T2, Serine/threonine-protein kinase 3 (Homo sapiens) (UniProt Q13188); details: Compound concentration 1000.0 nM
T2 sequence (whole entry): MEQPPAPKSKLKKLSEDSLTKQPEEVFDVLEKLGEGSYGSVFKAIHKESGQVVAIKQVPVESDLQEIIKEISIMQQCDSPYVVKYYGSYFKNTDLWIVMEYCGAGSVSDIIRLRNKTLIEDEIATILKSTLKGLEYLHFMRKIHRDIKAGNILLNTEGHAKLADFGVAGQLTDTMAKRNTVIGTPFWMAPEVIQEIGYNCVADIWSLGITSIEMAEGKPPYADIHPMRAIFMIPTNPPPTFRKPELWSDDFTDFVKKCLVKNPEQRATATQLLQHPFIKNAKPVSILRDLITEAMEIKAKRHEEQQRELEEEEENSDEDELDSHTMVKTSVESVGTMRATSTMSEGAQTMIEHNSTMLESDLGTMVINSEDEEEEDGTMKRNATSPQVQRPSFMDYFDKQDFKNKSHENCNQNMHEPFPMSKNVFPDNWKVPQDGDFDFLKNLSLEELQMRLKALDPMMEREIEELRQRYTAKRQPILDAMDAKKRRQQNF

[5] = molecular target: T3, Inhibitor of nuclear factor kappa-B kinase subunit alpha (Homo sapiens) (UniProt O15111); details: Compound concentration 1000.0 nM
T3 sequence (whole entry): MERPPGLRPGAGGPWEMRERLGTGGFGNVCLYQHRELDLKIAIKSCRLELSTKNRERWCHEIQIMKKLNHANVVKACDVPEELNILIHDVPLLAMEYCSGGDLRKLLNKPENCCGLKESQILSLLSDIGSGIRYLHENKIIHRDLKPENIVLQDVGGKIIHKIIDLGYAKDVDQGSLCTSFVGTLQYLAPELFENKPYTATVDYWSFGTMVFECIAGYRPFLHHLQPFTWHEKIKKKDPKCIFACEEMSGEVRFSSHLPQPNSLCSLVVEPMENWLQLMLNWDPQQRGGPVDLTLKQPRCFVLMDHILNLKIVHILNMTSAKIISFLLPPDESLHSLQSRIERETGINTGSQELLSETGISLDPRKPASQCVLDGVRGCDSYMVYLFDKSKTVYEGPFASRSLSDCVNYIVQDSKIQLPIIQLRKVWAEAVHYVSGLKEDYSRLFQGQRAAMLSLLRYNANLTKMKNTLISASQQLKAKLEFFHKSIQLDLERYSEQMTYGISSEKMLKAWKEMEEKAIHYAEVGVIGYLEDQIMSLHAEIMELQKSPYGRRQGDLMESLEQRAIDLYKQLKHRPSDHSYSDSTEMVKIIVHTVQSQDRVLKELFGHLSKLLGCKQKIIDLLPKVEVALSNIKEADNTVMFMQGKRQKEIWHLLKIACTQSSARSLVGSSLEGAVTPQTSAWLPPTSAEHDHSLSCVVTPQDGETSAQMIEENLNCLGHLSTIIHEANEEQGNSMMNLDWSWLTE

[6] = molecular target: Protein kinase C delta type (Homo sapiens) (UniProt Q05655); details: Compound concentration 1000.0 nM
[7] = molecular target: Dual specificity tyrosine-phosphorylation-regulated kinase 1B (Homo sapiens) (UniProt Q9Y463); details: Compound concentration 1000.0 nM
[8] = molecular target: T4, Aurora kinase C (Homo sapiens) (UniProt Q9UQB9); details: Compound concentration 1000.0 nM
T4 sequence (whole entry): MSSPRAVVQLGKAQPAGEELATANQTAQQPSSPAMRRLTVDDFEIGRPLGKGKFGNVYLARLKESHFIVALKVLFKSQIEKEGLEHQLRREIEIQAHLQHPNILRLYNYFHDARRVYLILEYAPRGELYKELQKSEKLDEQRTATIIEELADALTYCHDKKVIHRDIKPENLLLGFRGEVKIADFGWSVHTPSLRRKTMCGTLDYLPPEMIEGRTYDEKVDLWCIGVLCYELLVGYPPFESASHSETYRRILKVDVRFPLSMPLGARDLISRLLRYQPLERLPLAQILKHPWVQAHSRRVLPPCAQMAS

[9] = molecular target: Mitogen-activated protein kinase 10 (Homo sapiens) (UniProt P53779); details: Compound concentration 1000.0 nM
[10] = molecular target: Histamine H2 receptor (Homo sapiens) (UniProt P25021); details: Compound concentration 10.0 uM
[11] = molecular target: T5, Tyrosine-protein kinase ZAP-70 (Homo sapiens) (UniProt P43403); details: Compound concentration 1000.0 nM
T5 sequence (whole entry): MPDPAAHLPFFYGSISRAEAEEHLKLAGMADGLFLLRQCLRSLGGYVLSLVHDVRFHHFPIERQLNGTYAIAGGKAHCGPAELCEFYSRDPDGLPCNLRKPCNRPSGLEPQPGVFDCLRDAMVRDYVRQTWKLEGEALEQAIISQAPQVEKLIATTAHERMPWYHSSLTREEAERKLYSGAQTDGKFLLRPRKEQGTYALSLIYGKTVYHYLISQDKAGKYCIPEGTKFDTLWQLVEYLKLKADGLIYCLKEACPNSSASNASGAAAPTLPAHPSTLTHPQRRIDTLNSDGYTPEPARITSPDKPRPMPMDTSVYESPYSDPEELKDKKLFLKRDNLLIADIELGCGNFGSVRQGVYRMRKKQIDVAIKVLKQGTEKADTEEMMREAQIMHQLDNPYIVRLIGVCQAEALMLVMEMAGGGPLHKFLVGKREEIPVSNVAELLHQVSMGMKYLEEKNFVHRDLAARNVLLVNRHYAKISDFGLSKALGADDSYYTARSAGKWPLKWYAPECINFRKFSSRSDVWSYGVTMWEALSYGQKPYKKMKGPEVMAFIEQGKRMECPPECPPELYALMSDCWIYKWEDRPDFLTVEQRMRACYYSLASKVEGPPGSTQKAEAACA

Chain of Dual specificity tyrosine-phosphorylation-regulated kinase 1B (Homo sapiens) (Q9Y463 whole entry, looked up): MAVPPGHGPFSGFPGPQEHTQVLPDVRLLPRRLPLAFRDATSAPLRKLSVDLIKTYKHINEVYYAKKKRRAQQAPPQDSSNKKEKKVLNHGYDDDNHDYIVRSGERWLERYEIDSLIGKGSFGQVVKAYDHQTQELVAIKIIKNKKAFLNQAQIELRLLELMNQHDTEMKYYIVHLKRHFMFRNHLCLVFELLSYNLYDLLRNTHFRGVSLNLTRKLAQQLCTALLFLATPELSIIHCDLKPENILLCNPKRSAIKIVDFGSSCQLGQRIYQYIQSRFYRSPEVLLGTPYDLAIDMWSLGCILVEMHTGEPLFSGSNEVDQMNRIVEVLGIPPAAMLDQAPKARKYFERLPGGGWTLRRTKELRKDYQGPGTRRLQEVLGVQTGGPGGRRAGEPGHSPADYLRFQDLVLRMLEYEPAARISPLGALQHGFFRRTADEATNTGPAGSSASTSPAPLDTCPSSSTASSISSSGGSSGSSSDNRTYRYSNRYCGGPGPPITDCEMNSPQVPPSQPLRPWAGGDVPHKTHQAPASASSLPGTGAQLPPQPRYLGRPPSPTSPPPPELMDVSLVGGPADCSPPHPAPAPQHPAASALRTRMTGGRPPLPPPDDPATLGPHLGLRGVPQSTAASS
Chain of Histamine H2 receptor (Homo sapiens) (P25021 whole entry): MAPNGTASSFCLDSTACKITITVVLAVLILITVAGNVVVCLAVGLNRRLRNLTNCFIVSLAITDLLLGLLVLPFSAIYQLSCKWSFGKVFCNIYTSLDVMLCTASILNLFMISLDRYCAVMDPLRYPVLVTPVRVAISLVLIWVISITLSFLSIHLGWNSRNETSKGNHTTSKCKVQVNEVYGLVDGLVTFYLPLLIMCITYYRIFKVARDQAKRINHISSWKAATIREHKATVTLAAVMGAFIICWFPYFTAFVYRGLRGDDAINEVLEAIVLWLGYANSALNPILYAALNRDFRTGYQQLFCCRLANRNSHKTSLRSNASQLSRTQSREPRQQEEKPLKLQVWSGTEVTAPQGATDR
Chain of Mitotic checkpoint serine/threonine-protein kinase BUB1 (Homo sapiens) (O43683 whole entry, looked up): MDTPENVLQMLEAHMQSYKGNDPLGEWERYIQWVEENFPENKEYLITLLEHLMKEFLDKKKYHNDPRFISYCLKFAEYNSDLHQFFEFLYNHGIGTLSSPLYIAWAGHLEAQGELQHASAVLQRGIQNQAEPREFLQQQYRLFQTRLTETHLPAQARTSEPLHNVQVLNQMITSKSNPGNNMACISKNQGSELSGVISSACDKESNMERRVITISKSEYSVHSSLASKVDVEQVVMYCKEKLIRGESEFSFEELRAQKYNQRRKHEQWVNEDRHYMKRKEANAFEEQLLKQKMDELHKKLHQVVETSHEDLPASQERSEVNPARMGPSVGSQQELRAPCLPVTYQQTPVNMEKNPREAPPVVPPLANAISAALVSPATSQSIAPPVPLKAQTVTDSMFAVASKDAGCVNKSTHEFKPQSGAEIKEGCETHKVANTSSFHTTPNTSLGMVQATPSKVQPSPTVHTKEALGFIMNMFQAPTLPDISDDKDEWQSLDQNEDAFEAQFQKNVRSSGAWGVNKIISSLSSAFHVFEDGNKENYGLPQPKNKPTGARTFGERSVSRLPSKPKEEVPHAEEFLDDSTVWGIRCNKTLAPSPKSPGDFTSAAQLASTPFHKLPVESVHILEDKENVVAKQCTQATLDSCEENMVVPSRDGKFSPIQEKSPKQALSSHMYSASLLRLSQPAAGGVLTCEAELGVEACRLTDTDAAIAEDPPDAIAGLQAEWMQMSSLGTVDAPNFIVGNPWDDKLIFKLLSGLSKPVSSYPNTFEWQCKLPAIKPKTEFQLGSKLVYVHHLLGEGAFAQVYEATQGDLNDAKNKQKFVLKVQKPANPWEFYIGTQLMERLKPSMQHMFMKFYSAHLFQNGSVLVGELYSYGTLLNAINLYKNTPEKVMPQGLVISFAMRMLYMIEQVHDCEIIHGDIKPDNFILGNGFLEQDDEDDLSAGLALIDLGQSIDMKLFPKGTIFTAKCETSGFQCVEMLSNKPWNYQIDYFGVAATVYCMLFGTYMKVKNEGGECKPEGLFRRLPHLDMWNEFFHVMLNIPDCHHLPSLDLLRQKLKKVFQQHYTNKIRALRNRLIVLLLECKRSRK
Chain of Mitogen-activated protein kinase 10 (Homo sapiens) (P53779 whole entry): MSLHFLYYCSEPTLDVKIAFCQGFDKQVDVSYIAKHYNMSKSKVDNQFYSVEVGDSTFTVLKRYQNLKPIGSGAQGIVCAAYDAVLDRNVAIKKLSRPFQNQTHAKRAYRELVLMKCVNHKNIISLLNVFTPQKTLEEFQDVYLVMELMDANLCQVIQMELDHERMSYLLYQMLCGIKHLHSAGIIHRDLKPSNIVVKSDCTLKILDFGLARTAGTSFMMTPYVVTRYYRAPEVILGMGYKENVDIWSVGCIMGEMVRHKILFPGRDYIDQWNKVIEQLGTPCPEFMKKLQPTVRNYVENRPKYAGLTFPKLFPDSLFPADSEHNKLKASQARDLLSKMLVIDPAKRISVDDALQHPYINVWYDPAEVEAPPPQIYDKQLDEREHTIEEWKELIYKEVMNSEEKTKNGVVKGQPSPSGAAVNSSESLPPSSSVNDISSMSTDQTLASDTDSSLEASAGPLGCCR
Chain of Proto-oncogene tyrosine-protein kinase ROS (Homo sapiens) (P08922 whole entry): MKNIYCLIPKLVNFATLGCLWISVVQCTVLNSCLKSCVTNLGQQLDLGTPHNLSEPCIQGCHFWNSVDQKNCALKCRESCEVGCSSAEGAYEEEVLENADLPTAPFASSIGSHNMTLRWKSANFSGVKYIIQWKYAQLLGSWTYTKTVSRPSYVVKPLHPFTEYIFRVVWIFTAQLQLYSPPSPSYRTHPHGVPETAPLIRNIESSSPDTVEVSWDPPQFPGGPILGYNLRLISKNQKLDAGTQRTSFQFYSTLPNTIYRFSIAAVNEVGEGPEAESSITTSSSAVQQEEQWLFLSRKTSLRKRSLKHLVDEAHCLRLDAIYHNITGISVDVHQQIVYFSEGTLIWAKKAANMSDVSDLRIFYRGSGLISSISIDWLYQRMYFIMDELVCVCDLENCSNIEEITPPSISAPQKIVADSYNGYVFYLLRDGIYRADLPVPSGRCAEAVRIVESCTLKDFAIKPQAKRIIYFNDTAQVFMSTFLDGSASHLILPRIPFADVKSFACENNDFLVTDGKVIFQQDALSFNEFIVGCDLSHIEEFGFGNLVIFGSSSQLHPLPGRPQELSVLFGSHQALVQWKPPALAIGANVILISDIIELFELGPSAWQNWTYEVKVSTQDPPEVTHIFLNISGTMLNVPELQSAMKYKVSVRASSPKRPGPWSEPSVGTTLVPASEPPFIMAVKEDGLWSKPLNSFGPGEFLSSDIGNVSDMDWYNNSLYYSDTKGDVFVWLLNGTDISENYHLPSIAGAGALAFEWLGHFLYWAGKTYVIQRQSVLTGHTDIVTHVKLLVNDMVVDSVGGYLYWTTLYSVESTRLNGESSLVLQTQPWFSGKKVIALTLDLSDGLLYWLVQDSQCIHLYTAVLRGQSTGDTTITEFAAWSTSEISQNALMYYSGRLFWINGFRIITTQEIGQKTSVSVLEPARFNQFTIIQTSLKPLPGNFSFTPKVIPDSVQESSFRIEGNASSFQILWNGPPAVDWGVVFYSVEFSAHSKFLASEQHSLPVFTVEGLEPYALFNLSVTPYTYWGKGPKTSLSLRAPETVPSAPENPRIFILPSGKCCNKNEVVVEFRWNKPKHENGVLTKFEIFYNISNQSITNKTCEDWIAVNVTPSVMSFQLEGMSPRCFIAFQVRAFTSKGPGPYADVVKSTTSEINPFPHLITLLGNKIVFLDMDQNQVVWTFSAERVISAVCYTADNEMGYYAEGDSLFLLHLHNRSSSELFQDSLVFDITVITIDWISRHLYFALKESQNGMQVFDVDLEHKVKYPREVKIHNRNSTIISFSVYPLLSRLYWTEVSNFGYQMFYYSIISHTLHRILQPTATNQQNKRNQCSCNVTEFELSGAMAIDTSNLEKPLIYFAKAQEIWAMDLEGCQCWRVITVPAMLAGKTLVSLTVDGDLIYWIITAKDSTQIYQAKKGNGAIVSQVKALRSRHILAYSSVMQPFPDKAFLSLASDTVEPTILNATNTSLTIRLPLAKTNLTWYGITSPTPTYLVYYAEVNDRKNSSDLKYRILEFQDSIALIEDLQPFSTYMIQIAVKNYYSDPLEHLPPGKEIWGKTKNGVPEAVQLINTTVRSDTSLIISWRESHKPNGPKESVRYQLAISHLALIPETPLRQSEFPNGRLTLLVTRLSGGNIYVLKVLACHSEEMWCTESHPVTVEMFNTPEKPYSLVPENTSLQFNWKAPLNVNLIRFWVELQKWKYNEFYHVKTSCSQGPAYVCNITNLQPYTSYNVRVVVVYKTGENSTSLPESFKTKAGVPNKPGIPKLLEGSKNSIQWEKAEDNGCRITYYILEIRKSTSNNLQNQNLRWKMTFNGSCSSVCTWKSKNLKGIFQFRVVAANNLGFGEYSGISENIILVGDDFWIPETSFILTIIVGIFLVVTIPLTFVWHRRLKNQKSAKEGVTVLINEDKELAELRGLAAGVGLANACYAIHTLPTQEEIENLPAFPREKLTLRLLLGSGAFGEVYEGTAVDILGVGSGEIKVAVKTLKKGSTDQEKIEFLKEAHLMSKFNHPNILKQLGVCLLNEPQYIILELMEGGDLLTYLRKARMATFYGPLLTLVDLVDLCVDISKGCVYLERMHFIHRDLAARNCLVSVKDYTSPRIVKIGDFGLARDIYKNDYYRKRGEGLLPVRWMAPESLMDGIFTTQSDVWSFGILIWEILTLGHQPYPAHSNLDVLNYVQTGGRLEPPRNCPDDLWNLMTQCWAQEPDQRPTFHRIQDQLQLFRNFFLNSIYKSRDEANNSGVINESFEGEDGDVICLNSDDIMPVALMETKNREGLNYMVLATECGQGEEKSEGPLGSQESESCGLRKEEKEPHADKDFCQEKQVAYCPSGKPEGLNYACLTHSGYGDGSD

## CN(C)C(=O)Cn1cc(-c2nc(C3(c4ccc(-c5cnc(N)nc5)cc4)CC3)no2)cn1 [BI 0153]
[1]
  residual activity: 75%
[2]
  residual activity: 87%
[3]
  residual activity: 62%
[4]
  residual activity: 100%
[5]
  residual activity: 100%
[6]
  residual activity: 67%
[7]
  residual activity: 66%
[8]
  residual activity: 100%
[9]
  residual activity: 93%
[10]
  inhibition: -9.18%
[11]
  residual activity: 94%

## CN(C)C(=O)Cn1cc(-c2nc([C@@](C)(c3ccc(-c4cnc(N)nc4)cc3)C3CC3)no2)cn1 [BI 665915]
[1]
  residual activity: 75%
[2]
  residual activity: 88%
[3]
  residual activity: 94%
[4]
  residual activity: 100%
[5]
  residual activity: 0%
[6]
  residual activity: 98%
[7]
  residual activity: 98%
[8]
  residual activity: 100%
[9]
  residual activity: 94%
[10]
  inhibition: -8.4%
[11]
  residual activity: 100%
